Experimental data as given in US20220031680A1, “Donecopride As Neuroprotective Agent In the Treatment of Neurodegenerative Diseases” (priority 2018, published 2022).
Values joined by “and” are separate entries in the source; they are usually repeats but may differ in a detail not shown here. Equal values may be shown once.

What was measured:
[1] = test system: rat primary cortical neurons after glutamate injury; assay: Survival and neurite network of primary cortical neurons after glutamate injury; type: cell-based; details: glutamate 20 μM 20 min; for concentrations significantly protecting cortical neurons from death: compound 1 h before and 48 h after; for concentration of maximal effect on neurite network: cortical neurons
Method: The present study assesses the neuroprotective effect of MR36014 and MR33583 (at 4 concentrations) in rat primary cortical neurons after glutamate injury. The test compounds were pre-incubated for 1 hour before glutamate application (20 μM for 20 min). The neuroprotective effect (survival and neurite network) of test compounds were investigated.
Rat cortical neurons were cultured as described by Callizot et al. (2013) J. Neurosci. Res. 91:706-716. Pregnant female rat (Wistar) of 15 days of gestation were killed using a deep anesthesia with CO2 chamber and a cervical dislocation. Briefly, fetuses were collected and immediately placed in ice-cold L15 Leibovitz medium with a 2% penicillin (10,000 U/mL) and streptomycin (10 mg/mL) solution (PS) and 1% bovine serum albumin (BSA). Cortex were treated for 20 min at 37° C. with a trypsin-EDTA solution at a final concentration of 0.05% trypsin and 0.02% EDTA. The dissociation was stopped by addition of Dulbecco's modified Eagle's medium (DMEM) with 4.5 g/l of glucose, containing DNAse I grade II (final concentration 0.5 mg/ml) and 10% fetal calf serum (FCS). Cells were mechanically dissociated by three forced passages through the tip of a 10-ml pipette. Cells were then centrifuged at 515×g for 10 min at 4° C. The supernatant was discarded, and the pellet was resuspended in a defined culture medium consisting of Neurobasal medium with a 2% solution of B27 supplement, 2 mmol/I L-glutamine, 2% PS solution, and 10 ng/ml brain-derived neurotrophic factor (BDNF). Viable cells were counted in a Neubauer cytometer, using the trypan blue exclusion test.
The cells were seeded at a density of 25,000 per well in 96-well plates precoated with poly-L-lysine and were cultured at 37° C. in an air (95%)-CO2 (5%) incubator.
Pre-incubation: On day 13 of culture, the compounds were dissolved in the culture medium and pre-incubated with primary cortical neurons for 1 hour, before glutamate exposure.
Injury: 1 hour after test compound incubation, glutamate was added to a final concentration of 20 μM diluted in control medium still in presence of the test compounds for 20 min. After 20 min, glutamate was washed out and fresh culture medium with the test compounds were added for additional 48 hours.
Test compounds were tested in 96-well plate (n=6 culture wells per condition). The following conditions were assessed: […]
The following read-outs will be investigated: • The total neuron survival (MAP-2 positive, number), (data will be expressed into mean number of neurons of 30 pictures per well). • The total neurite network (MAP-2 in μm), (data will be expressed into mean of neurons of 30 pictures per well).

Aβ42 = Aβ42 concentration in cerebrospinal fluid of 5×FAD mice; type: in vivo, mouse; details: 1 mg/kg twice a week for 3 months; compared to controls
Method: 5×FAD mice received chronic treatments with drugs or vehicle according to 2 different protocols. In each experiment, drugs or vehicle solution were administered i.p. twice a week (1 mg/kg). In “Protocol 1”, mice (n=6-7 mice per group) were treated with compounds for two months, from 2 to 4 months of age. In “Protocol 2”, mice (n=7) were treated with compounds for three months, from 1 month to 4 months of age. At the end of each protocol, mice were anesthetized with a mixture of 100 mg/kg ketamine and 10 mg/kg xylazine in saline solution and perfused transcardially with PBS. Brains were quickly isolated on ice, the olfactory bulbs and cerebellum removed and the two hemispheres divided. One hemisphere was frozen on dry ice and stored at −80° C. for biochemical analysis, while the other was post-fixed in 4% PFA for immunohistochemistry (IHC).
Mice were anesthetized and mounted onto a stereotaxic instrument. The neck skin was cut and subcutaneous tissue and muscles separated with the help of micro-retractors (Fine Science Tools, Heidelberg, Germany). Mice were then laid down so that the head formed an angle of about 135° with the body (Liu and Duff (2008) J. Vis. Exp. 10:960). A capillary tube (Borosilicate glass, B100-75-10, Sutter Instruments, Novato, Calif., USA) was used to punch the dura mater of the cisterna magna. CSF was collected by capillary action and transferred to 0.5 mL microtubes, immediately frozen on dry ice and stored at −80° C. until use. Once thawed, samples were heated at 60° C. for 5 min as described in the international application WO 2008/009868 and analyzed without further freezing-thawing cycles.
ELISA kits from IBL International (Hamburg, Germany) for the dosage of Aβ40 (human amyloid β (1-40) assay kit, #27713) or Aβ42 (human amyloid β (1-42) assay kit, #27719) were used according to the manufacturer's instructions. Reactions were read at 620 nm and 450 nm using an Infinite 2000 luminescence counter. The obtained values were normalized to the protein concentration of each sample, measured using a BCA protein assay (Sigma-Aldrich). […]

Compound | concentrations significantly protecting cortical neurons from death [1] | concentration of maximal effect on neurite network [1] [nM] | Aβ42 concentration in cerebrospinal fluid (CSF) (Aβ42)
COc1cc(N)c(F)cc1C(=O)CCC1CCN(CC2CCCCCC2)CC1 [MR36014] | 1 nM | 1 | –
COc1cc(N)c(F)cc1C(=O)CCC1CCN(CC2CCCC2)CC1 [MR33583] | 50 nM and 100 nM | 50 | –
COc1cc(N)c(F)cc1C(=O)CCC1CCN(CC2CCCCC2)CC1 [Flucopride] | – | – | not significantly different
COc1cc(N)c(Cl)cc1C(=O)CCC1CCN(CC2CCCCC2)CC1 [Donecopride] | – | – | not significantly different
